Source: patent US8076488B2, “Bicyclic urea derivatives useful in the treatment of cancer and other disorders” (Bayer Healthcare LLC, priority 2003, dated 2011)
Structures can show the parent of a compound that is named as a salt.

Biological target: T1, c-Raf kinase (Lck-activated c-Raf, Raf-1) (Homo sapiens, UniProt P04049)
T1 construct: GST-c-Raf (from amino acid 302 to amino acid 648); made in house; host or cells: Sf9 insect cells (baculovirus; co-infection with full-length Lck)
Experiment: c-Raf (Raf-1) biochemical assay (radioactive filtermat assay, MEK-1 substrate)
Details: at 1 micromolar compound; 5 μM ATP, 32° C., 1 hour
Experimental: Biological Tests c-Raf (Raf-1) Biochemical Assay Purification of Proteins Used in the Assay
The c-Raf biochemical assay was performed with a c-Raf enzyme that was activated (phosphorylated) by Lck kinase. Lck-activated c-Raf (Lck/c-Raf) was produced in Sf9 insect cells by co-infecting cells with baculoviruses expressing, under the control of the polyhedrin promoter, GST-c-Raf (from amino acid 302 to amino acid 648) and Lck (full-length). Both baculoviruses were used at the multiplicity of infection of 2.5 and the cells were harvested 48 hours post infection.
MEK-1 protein was produced in Sf9 insect cells by infecting cells with the baculovirus expressing GST-MEK-1 (full-length) fusion protein at the multiplicity of infection of 5 and harvesting the cells 48 hours post infection. Similar purification procedure was used for GST-c-Raf 302-648 and GST-MEK-1.
Transfected cells were suspended at 100 mg of wet cell biomass per mL in a buffer containing 10 mM sodium phosphate, 140 mM sodium chloride pH 7.3, 0.5% Triton X-100 and the protease inhibitor cocktail. The cells were disrupted with Polytron homogenizer and centrifuged 30,000 g for 30 minutes. The 30,000 g supernatant was applied onto GSH-Sepharose. The resin was washed with a buffer containing 50 mM Tris, pH 8.0, 150 mM NaCl and 0.01% Triton X-100. The GST-tagged proteins were eluted with a solution containing 100 mM Glutathione, 50 mM Tris, pH 8.0, 150 mM NaCl and 0.01% Triton X-100. The purified proteins were dialyzed into a buffer containing 20 mM Tris, pH 7.5, 150 mM NaCl and 20% Glycerol.
Biochemical Assay Protocol and Results
The compounds were serially diluted in DMSO using three-fold dilutions to stock concentrations ranging typically from 50 μM to 20 nM (final concentrations in the assay range from 1 μM to 0.4 nM). The c-Raf biochemical assay was performed as a radioactive filtermat assay in 96-well Costar polypropylene plates (Costar 3365). The plates were loaded with 75 μL solution containing 50 mM HEPES pH 7.5, 70 mM NaCl, 80 ng of Lck/c-Raf and 1 μg MEK-1. Subsequently, 2 μL of the serially diluted individual compounds were added to the reaction, prior to the addition of ATP. The reaction was initiated with 25 μL ATP solution containing 5 μM ATP and 0.3 μCi [33P]-ATP. The plates were sealed and incubated at 32° C. for 1 hour. The reaction was quenched with the addition of 50 μl of 4% Phosphoric Acid and harvested onto P30 filtermats (PerkinElmer) using a Wallac Tomtec Harvester. Filtermats were washed with 1% Phosphoric Acid first and deinonized H2O second. The filters were dried in a microwave, soaked in scintillation fluid and read in a Wallac 1205 Betaplate Counter (Wallac Inc., Atlanta, Ga., U.S.A.). The results were expressed as percent inhibition. % Inhibition=[[…]]×100 where • Tib=(counts per minute with inhibitor)−(background) • Ti=(counts per minute without inhibitor)−(background)

T1 sequence (P04049 302-648): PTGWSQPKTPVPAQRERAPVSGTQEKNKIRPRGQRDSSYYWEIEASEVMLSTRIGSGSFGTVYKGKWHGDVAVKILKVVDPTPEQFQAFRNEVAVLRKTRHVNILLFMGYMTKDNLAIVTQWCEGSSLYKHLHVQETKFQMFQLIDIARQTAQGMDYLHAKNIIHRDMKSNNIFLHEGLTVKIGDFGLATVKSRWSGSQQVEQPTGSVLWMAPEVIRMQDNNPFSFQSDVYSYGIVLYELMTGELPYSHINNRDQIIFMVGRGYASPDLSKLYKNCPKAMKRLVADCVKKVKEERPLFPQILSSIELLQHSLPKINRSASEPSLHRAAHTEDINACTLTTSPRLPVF

| Compound | inhibition at 1 µM [%] |
| --- | --- |
| COC(=O)c1cc(Oc2cccc(NC(=O)Nc3ccc4c(cnn4C)c3)c2)ccn1 [Example 2, Methyl 4-[3-({[(1-methyl-1H-indazol-5-yl)amino]carbonyl}amino)phenoxy]-pyridine-2-carboxylate] | > 40 |
| CNC(=O)c1cc(Oc2ccc(NC(=O)Nc3cccc4c3CCC4)cc2)ccn1 [Example 7] | > 40 |
| CNC(=O)c1cc(Oc2ccc(NC(=O)Nc3ccc4c(c3)N(C(C)=O)CC4)cc2)ccn1 [Example 10] | > 40 |
| CNC(=O)c1cc(Oc2ccc(NC(=O)Nc3nc4ccc(Cl)cc4s3)cc2)ccn1 [Example 11] | > 40 |
| CNC(=O)c1cc(Oc2ccc(NC(=O)Nc3nc4ccc(OC(F)(F)F)cc4s3)cc2)ccn1 [Example 12] | > 40 |
| CNC(=O)c1cc(Oc2ccc(NC(=O)Nc3nc4ccc(F)cc4s3)cc2)ccn1 [Example 13] | > 40 |
| CNC(=O)c1cc(Oc2ccc(NC(=O)Nc3nc4ccc(OC)cc4s3)cc2)ccn1 [Example 14] | > 40 |
| CNC(=O)c1cc(Oc2ccc(NC(=O)Nc3ccc4c(c3)OC(F)(F)O4)cc2)ccn1 [Example 20] | > 40 |
| CNC(=O)c1cc(Oc2ccc(NC(=O)Nc3ccc4[nH]c(C(F)(F)F)nc4c3)cc2)ccn1 [Example 28] | > 40 |
| CNC(=O)c1cc(Oc2ccc(NC(=O)Nc3ccc4c(c3)CCN4S(C)(=O)=O)cc2)ccn1 [Example 31] | > 40 |
| CNC(=O)c1cc(Oc2cccc(NC(=O)Nc3ccc4[nH]nnc4c3)c2)ccn1 [Example 37] | > 40 |
| CCN(CC)CCn1ccc2cc(NC(=O)Nc3ccc(Oc4ccnc(C(=O)NC)c4)cc3F)ccc21 [Example 44] | > 40 |
| CCN(CC)CCn1ncc2cc(NC(=O)Nc3ccc(Oc4ccnc(C(=O)NC)c4)cc3F)ccc21 [Example 45] | > 40 |
| CNC(=O)c1cc(Oc2ccc(NC(=O)Nc3ccc4c(c3)OC(F)(F)C(F)(F)O4)c(C(F)(F)F)c2)ccn1 [Example 64] | > 40 |
| CNC(=O)c1cc(Oc2ccc(NC(=O)Nc3ccc4sc(C)nc4c3)c(C(F)(F)F)c2)ccn1 [Example 65] | > 40 |
| CNC(=O)c1cc(COc2cccc(NC(=O)Nc3ccc4c(cnn4C)c3)c2)ccn1 [Example 89] | > 40 |
| Cc1nc2cc(NC(=O)Nc3ccc(Oc4ccnc(C(N)=O)c4)cc3)ccc2s1 [Example 91] | > 40 |

| Compound | inhibition at 1 µM [%] |
| --- | --- |
| NC(=O)c1cc(Oc2ccc(NC(=O)Nc3ccc4c(c3)CCC4)c(Cl)c2)ccn1 [Example 95] | > 40 |
| COCCNC(=O)c1cc(Oc2ccc(NC(=O)Nc3ccc4c(cnn4C)c3)c(F)c2)ccn1 [Example 99] | > 40 |
| CNC(=O)c1cc(Oc2ccc(NC(=O)Nc3nc4ccc([N+](=O)[O-])cc4s3)cc2)ccn1 [Example 102] | > 40 |
| CNC(=O)c1cc(Oc2ccc(NC(=O)Nc3nc4c(F)cc(F)cc4s3)cc2)ccn1 [Example 103] | > 40 |
| COC(=O)c1cc(Oc2cccc(NC(=O)Nc3ccc4c(c3)C(F)(F)OC(F)(F)O4)c2)ccn1 [Example 105, Methyl 4-[3-({[(2,2,4,4-tetrafluoro-4H-1,3-benzodioxin-6-yl)amino]-carbonyl}amino)phenoxy]pyridine-2-carboxylate] | > 40 |
| CNC(=O)c1cc(Oc2cccc(NC(=O)Nc3ccc4[nH]ncc4c3)c2)ccn1 [Example 108, 4-(3-{[(1H-indazol-5-ylamino)carbonyl]amino}phenoxy)-N-methylpyridine-2-carboxamide dihydrochloride] | > 40 |
| CNC(=O)c1cc(Oc2ccc(NC(=O)Nc3ccc4c(c3)C(F)(F)OC(F)(F)O4)cc2Cl)ccn1 [Example 115] | > 40 |
| CNC(=O)c1cc(Oc2cccc(NC(=O)Nc3ccc4c(c3)C(F)(F)OC(F)(F)O4)c2)ccn1 [Example 117] | > 40 |
| COC(=O)c1cncc(Oc2ccc(NC(=O)Nc3ccc4c(c3)C(F)(F)OC(F)(F)O4)cc2)c1 [Example 122] | > 40 |
| CNC(=O)c1cc(Oc2ccc(NC(=O)Nc3cccc4c3OC(F)(F)C(F)(F)O4)cc2)ccn1 [Example 132] | > 40 |
| O=C(Nc1ccc(Oc2ccnc(C(=O)NCCCn3ccnc3)c2)cc1)Nc1ccc2c(c1)C(F)(F)OC(F)(F)O2 [Example 145, N-[3-(1H-imidazol-1-yl)propyl]-4-[4-({[(2,2,4,4-tetrafluoro-4H-1,3-benzodioxin-6-yl)amino]carbonyl}amino)phenoxy]pyridine-2-carboxamide] | > 40 |
| O=C(Nc1ccc(Oc2ccnc(C(=O)NCCN3CCCC3)c2)cc1)Nc1ccc2c(c1)C(F)(F)OC(F)(F)O2 [Example 146, N-(2-pyrrolidin-1-ylethyl)4-[4-({[(2,2,4,4-tetrafluoro-4H-1,3-benzodioxin-6-yl)-amino]carbonyl}amino)phenoxy]pyridine-2-carboxamide] | > 40 |
| Cn1ncc2cc(NC(=O)Nc3cccc(Oc4ccnc(C(=O)NCCN5CCCCC5)c4)c3)ccc21 [Example 148, 4-[3-({[(1-methyl-1H-indazol-5-yl)amino]carbonyl}amino)phenoxy]-N-(2-piperidin-1-ylethyl)pyridine-2-carboxamide] | > 40 |
| NC(=O)c1cc(Oc2cc(F)c(NC(=O)Nc3ccc4c(c3)C(F)(F)OC(F)(F)O4)c(F)c2)ccn1 [Example 150, 4-[3,5-difluoro-4-({[(2,2,4,4-tetrafluoro-4H-1,3-benzodioxin-6-yl)amino]-carbonyl}amino)phenoxy]pyridine-2-carboxamide] | > 40 |
| O=C(Nc1ccc(Oc2ccnc(C(=O)NCCN3CCCCC3)c2)cc1)Nc1ccc2c(c1)C(F)(F)OC(F)(F)O2 [Example 153] | > 40 |
| O=C(Nc1ccc(Oc2ccnc(C(=O)Nc3ccccn3)c2)cc1)Nc1ccc2c(c1)C(F)(F)OC(F)(F)O2 [Example 155] | > 40 |

The remaining lines, values ahead:

| inhibition at 1 µM [%] | Compound |
| --- | --- |
| > 40 | CC(=O)c1cc(Oc2ccc(NC(=O)Nc3ccc4c(cnn4C)c3)cc2)ccn1 [Example 3, N-{4-[(2-acetylpyridin-4-yl)oxy]phenyl}-N′-(1-methyl-1H-indazol-5-yl)urea] |
| > 40 | CNC(=O)c1cc(Oc2ccc(NC(=O)Nc3ccc4nc(C)oc4c3)cc2)ccn1 [Example 6] |
| > 40 | CNC(=O)c1cc(Oc2ccc(NC(=O)Nc3ccc4nn(C)cc4c3)cc2)ccn1 [Example 9] |
| > 40 | CNC(=O)c1cc(Oc2ccc(NC(=O)Nc3ccc4[nH]c(C)cc4c3)cc2)ccn1 [Example 16] |
| > 40 | CNC(=O)c1cc(Oc2ccc(NC(=O)Nc3ccc4nccnc4c3)cc2)ccn1 [Example 17] |
| > 40 | CNC(=O)c1cc(Oc2ccc(NC(=O)Nc3ccc4c(c3)CCC4=O)cc2)ccn1 [Example 22] |
| > 40 | CNC(=O)c1cc(Oc2ccc(NC(=O)Nc3ccc4cnn(C)c4c3)cc2)ccn1 [Example 24] |
| > 40 | CNC(=O)c1cc(Oc2ccc(NC(=O)Nc3ccc4[nH]nnc4c3)cc2)ccn1 [Example 26] |
| > 40 | CNC(=O)c1cc(Oc2ccc(NC(=O)Nc3ccc4cn[nH]c4c3)cc2)ccn1 [Example 27] |
| > 40 | CCn1c(C)nc2cc(NC(=O)Nc3ccc(Oc4ccnc(C(=O)NC)c4)cc3)ccc21 [Example 29] |
| > 40 | CNC(=O)c1cc(COc2ccc(NC(=O)Nc3ccc4c(cnn4C)c3)cc2)ccn1 [Example 88] |
| > 40 | COC(=O)c1cc(Oc2ccc(NC(=O)Nc3ccc4c(cnn4C)c3)cc2)ccn1 [Example 98] |
| > 40 | CN(C)C(=O)CNC(=O)c1cc(Oc2ccc(NC(=O)Nc3ccc4c(cnn4C)c3)cc2)ccn1 [Example 100] |
| > 40 | CNC(=O)c1cc(Oc2ccc(NC(=O)Nc3ccc4c(c3)OCO4)cc2)ccn1 [Example 135] |
| > 40 | Cn1ncc2cc(NC(=O)Nc3ccc(Oc4ccnc(C(=O)NC5CC5)c4)cc3)ccc21 [Example 147, N-cyclopropyl-4-[4-({[(1-methyl-1H-indazol-5-yl)amino]-carbonyl}amino)phenoxy]pyridine-2-carboxamide] |
